Converted amounts (≈) assume the structure as drawn. The source made the active and inactive calls. The rule behind the calls is not given here.
Tested on: aqueous solubility in 1x PBS
Test: aqueous solubility in phosphate-buffered saline, ADME assay, biophysical, set 2 (AID 624321)
Details: at 100 µM; hits give high values

Row | SMILES | solubility
1 | CC(=O)c1ccc(N2CCN(S(=O)(=O)c3ccc4c(c3)CC(=O)N4)CC2)cc1 | 3 µg/mL (inactive) (≈ 7.51 µM)
2 | CC(C)(C)OC(=O)NCCc1nnc(S(=O)(=O)Cc2ccc(Cl)cc2Cl)o1 | 5.8 µg/mL (inactive) (≈ 13.3 µM)
3 | CCOC(=O)C(C)Oc1cccc2c(=O)n(CC(=O)Nc3ccc4c(c3)OCCO4)ccc12 (centres undefined) | 0.35 µg/mL (inactive) (≈ 0.774 µM)
4 | O=[N+]([O-])c1ccc(CN2CCOCCOCCN(Cc3ccc([N+](=O)[O-])cc3)CCOCC2)cc1 | 21.7 µg/mL (≈ 44.4 µM)
5 | COc1ccc(C2CC(c3ccccc3)=NN2c2ccc(S(N)(=O)=O)cc2)cc1 (centres undefined) | 0.02 µg/mL (inactive) (≈ 0.0491 µM)
6 | CCc1nnc(NC(=O)c2ccc(NS(=O)(=O)c3ccccc3)cc2)s1 | 1.3 µg/mL (inactive) (≈ 3.35 µM)
7 | COC(=O)c1ccccc1NC(=O)c1ccc(F)cc1 | 0.94 µg/mL (inactive) (≈ 3.44 µM)
8 | Cc1ccc(C)c(NS(=O)(=O)c2cc(C(=O)Nc3ccccc3-c3ccccc3)ccc2Cl)c1 | 0.43 µg/mL (inactive) (≈ 0.876 µM)
9 | Cc1cc(C)n(-c2nc(NCCCO)c3c4c(sc3n2)CCCC4)n1 | 17.1 µg/mL (≈ 47.8 µM)
10 | Cc1ccc(N2CCN(S(=O)(=O)N3CCCCC3)CC2)c(C)c1 | 1.4 µg/mL (inactive) (≈ 4.15 µM)
11 | Cc1ccc(S(=O)(=O)n2c(N)nc3ccccc32)cc1 | 1.8 µg/mL (inactive) (≈ 6.26 µM)
12 | Cc1cc(C)nc(-n2nc(C)c(Sc3ccc(F)cc3)c2N)n1 | 4.8 µg/mL (inactive) (≈ 14.6 µM)
13 | O=c1oc2c(O)c(O)cc3c(=O)oc4c(O)c(O)cc1c4c23 | > 30 µg/mL
14 | c1ccc(-c2nnc(N3CCOCC3)nc2-c2ccccc2)cc1 | 2.1 µg/mL (inactive) (≈ 6.6 µM)
15 | COc1ccc(S(=O)(=O)N2CCN(S(=O)(=O)c3ccc4c(c3)OCCO4)CC2)cc1 | 0.26 µg/mL (inactive) (≈ 0.572 µM)
16 | CCOc1ccc(NC(=S)N2CCC(C(O)(c3ccccc3)c3ccccc3)CC2)cc1 | 0.92 µg/mL (inactive) (≈ 2.06 µM)
17 | CN(C)c1nc(N)nc(CSc2nnnn2-c2cccc3ccccc23)n1 | 0.65 µg/mL (inactive) (≈ 1.71 µM)
18 | COc1ccc(C2c3c(ncn(CCN4CCOCC4)c3=N)Oc3ccc4ccccc4c32)cc1OC (centres undefined) | 35.4 µg/mL (≈ 71 µM)
19 | Brc1ccc2c(c1)CN1CCCC1=N2 | > 25 µg/mL
20 | CCCc1cc(C(=O)N(C2CCCCC2)C2CCCCC2)no1 | 1.5 µg/mL (inactive) (≈ 4.71 µM)
21 | O=S1(=O)Nc2c(ccc3cccnc23)-c2ccccc21 | > 28 µg/mL
22 | COc1ccc(CSc2nc(C)cc(=O)[nH]2)cc1 | > 26 µg/mL
23 | O=c1c2ccccc2[se]n1-c1ccccc1 | 7.2 µg/mL (inactive) (≈ 26.3 µM)

Row | SMILES | solubility
24 | Cc1nc(SCc2nc3ccccc3[nH]2)c2oc3ccccc3c2n1 | 0.15 µg/mL (inactive) (≈ 0.433 µM)
25 | O=S(=O)(NC1CCCCC1N1CCOCC1)c1ccc(Cl)cc1 (centres undefined) | > 36 µg/mL
26 | CCCn1ncc(CN2CCCC(C(=O)c3cccc(OC(C)C)c3)C2)c1C (centres undefined) | 29.6 µg/mL (≈ 77.2 µM)
27 | CCCN(CCC)CCNC(=O)C1CCN(Cc2nc(-c3ccc(Cl)cc3)oc2C)CC1 | > 46 µg/mL
28 | NC(=O)C1CCN(c2nc(-c3ccc(Br)cc3)cs2)CC1 | 0.14 µg/mL (inactive) (≈ 0.382 µM)
29 | CCCN1CNc2c(c(=O)[nH]c(=S)n2CCc2ccc(OC)c(OC)c2)C1 | > 39 µg/mL
30 | CCc1oc2ccccc2c1C(=O)c1cc(Br)c(O)c(Br)c1 | > 42 µg/mL
31 | COc1cc(NC(=O)c2cc(C3CC3)on2)c(OC)cc1Cl | < 0.01 µg/mL (inactive)
32 | O=C1CCCC2=C1C1(CCCC1)N=C(Nc1nc3ccccc3o1)N2 | 0.13 µg/mL (inactive) (≈ 0.386 µM)
33 | COc1cccc(-c2nc(-c3ccc(NC(=O)Cc4ccccc4OC)cc3)no2)c1 | 0.04 µg/mL (inactive) (≈ 0.0963 µM)
34 | Cc1cc2c(s1)c1cnn(Cc3ccccc3F)c(=O)c1n2C | 0.08 µg/mL (inactive) (≈ 0.244 µM)
35 | COc1ccc(OC)c(S(=O)(=O)Nc2cnc3ccccc3c2)c1 | 25.6 µg/mL (≈ 74.3 µM)
36 | CCCC(=O)Nc1cccc(NC(=O)c2ccccc2Br)c1 | > 36 µg/mL
37 | N#Cc1ccccc1CSc1nc2ncc(Br)cc2[nH]1 | 0.42 µg/mL (inactive) (≈ 1.22 µM)
38 | Cc1ccc(S(=O)(=O)NCc2ccc(C(=O)NCCN(Cc3ccccc3)C(C)C)cc2)cc1 | 18.6 µg/mL (≈ 38.8 µM)
39 | Cc1ccc(NS(=O)(=O)c2ccc3c(c2)CCC(=O)N3)cc1C | 24.4 µg/mL (≈ 73.8 µM)
40 | CCCc1nc2c(=O)n(C)c(=O)nc-2n(C)n1 | > 23 µg/mL
41 | c1ccc2c(Nc3nnc(-c4ccncc4)s3)cccc2c1 | 2.7 µg/mL (inactive) (≈ 8.87 µM)
42 | CN(C)C1=C(Cl)C(=O)N(c2ccc(Cl)c(Cl)c2)C1=O | < 0.01 µg/mL (inactive)
43 | CN(C)c1oc(-c2ccc(OCc3ccc(Cl)cc3)cc2)nc1C#N | 0.03 µg/mL (inactive) (≈ 0.0848 µM)
44 | CC[C@H]1CN2CCc3cc(OC)c(OC)cc3[C@@H]2C[C@@H]1C[C@H]1NCCc2cc(OC)c(OC)cc21 | > 55 µg/mL
45 | O=c1[nH]c(SCc2ccc(Cl)cc2)nc2c1CCC2 | 0.62 µg/mL (inactive) (≈ 2.12 µM)
46 | COc1ccc(OC)c(-c2nnc3n2N=C(c2ccc(OC)c(OC)c2)CS3)c1 | 26.8 µg/mL (≈ 65 µM)

Row | SMILES | solubility
47 | c1ccc(CC2CCN(c3ncnc4sccc34)CC2)cc1 | 0.03 µg/mL (inactive) (≈ 0.0969 µM)
48 | COc1ccc(N(C(=O)CCl)C(C(=O)NCCc2ccccc2)c2cccs2)cc1Cl (centres undefined) | 0.51 µg/mL (inactive) (≈ 1.07 µM)
49 | Cn1nnnc1Sc1ncnc2scc(-c3ccccc3)c12 | 2.4 µg/mL (inactive) (≈ 7.35 µM)
50 | Cc1ccc(C)c(OCCn2cc(C(=O)O)c3ccccc32)c1 | 25.1 µg/mL (≈ 81.1 µM)
51 | Cc1ccc(NC(=O)CCC(=O)N/N=C/c2ccc([N+](=O)[O-])o2)cc1C | 0.43 µg/mL (inactive) (≈ 1.2 µM)
52 | O=C(COc1ccccc1Br)NCCc1nc2ccccc2[nH]1 | 29.4 µg/mL (≈ 78.6 µM)
53 | O=C1NCCCc2c1oc1ccc(O)cc21 | 16.8 µg/mL (≈ 77.3 µM)
54 | CCOc1ccc(-c2nc(-c3ccncc3)no2)cc1OCC | 0.77 µg/mL (inactive) (≈ 2.47 µM)
55 | Cc1cccc(-n2cnc3cc(C(=O)N4CCCCC4)ccc32)c1 | 26.3 µg/mL (≈ 82.3 µM)
56 | O=C(O)c1ccccc1OCc1ccccc1Br | > 30 µg/mL
57 | COc1ccc(Sc2ccc(NC(=O)c3ccccc3Cl)cc2C#N)cc1 | < 0.01 µg/mL (inactive)
58 | Cc1ccc(S(=O)(=O)C(c2ccccc2)c2c(C)noc2C)cc1 (centres undefined) | 17.9 µg/mL (≈ 52.4 µM)
59 | O=C(O)CCC(NS(=O)(=O)c1ccc(-c2ccccc2)cc1)C(=O)O (centres undefined) | > 36 µg/mL
60 | CS(=O)(=O)c1ccc(C(=O)OCC(=O)NC23CC4CC(CC(C4)C2)C3)cc1[N+](=O)[O-] | 4.8 µg/mL (inactive) (≈ 11 µM)
61 | Cc1ccnc(NC(=O)CCCOc2cc(=O)n(C)c3ccccc23)c1 | 8.3 µg/mL (inactive) (≈ 23.6 µM)
62 | Cc1ccc(C(=O)n2c3ccccc3c3ccccc32)cc1 | 0.03 µg/mL (inactive) (≈ 0.105 µM)
63 | Cc1cc(C(=O)CN2C(=O)CCC2=O)c(C)n1Cc1ccccc1 | 17.8 µg/mL (≈ 54.9 µM)
64 | Cc1ccc(-n2c(N)c(C#N)c(-c3ccccc3)c(C#N)c2=O)cc1 | 0.83 µg/mL (inactive) (≈ 2.54 µM)
65 | COc1ccc(CNCc2cccc3ccccc23)cc1 | 29.6 µg/mL (≈ 107 µM)
66 | O=c1[nH]c2c(s1)C(c1cccnc1)C1C3CCC(C3)C1S2 (centres undefined) | > 31 µg/mL
67 | Cc1cc(-c2nnc3n2CCCCC3)c(C)n1-c1ccccc1 | > 30 µg/mL
68 | N#C/C(=C\c1ccc([N+](=O)[O-])o1)c1nc2ccccc2[nH]1 | 0.17 µg/mL (inactive) (≈ 0.607 µM)
69 | COc1ccc(S(=O)(=O)n2nc(OC(=O)c3ccccc3)cc2N)cc1 | 1.1 µg/mL (inactive) (≈ 2.95 µM)

Row | SMILES | solubility
70 | O=C(O)c1cccnc1SCCc1ccccc1 | > 26 µg/mL
71 | Oc1cc(O)cc(/C=C/c2ccc(O)c(O)c2)c1 | 6.5 µg/mL (inactive) (≈ 26.6 µM)
72 | CSc1nc(-c2ccc(C)cc2)nc(C(Cl)Cl)n1 | 0.07 µg/mL (inactive) (≈ 0.233 µM)
73 | Cc1ccccc1N1CCN(c2ncnc3c2cnn3Cc2ccc(Cl)cc2)CC1 | 0.01 µg/mL (inactive) (≈ 0.0239 µM)
74 | CN1CSC(=S)N(C)C1 | > 16 µg/mL
75 | COc1ccccc1N(/N=C1\Sc2ccccc2C1=O)C(C)=O | 3.7 µg/mL (inactive) (≈ 11.3 µM)
76 | COc1nc(-c2ccccc2)nnc1-c1ccccc1 | 0.18 µg/mL (inactive) (≈ 0.684 µM)
77 | O=C(O)c1ccc(N2C(=O)/C(=C/c3ccc(-c4ccc([N+](=O)[O-])cc4)o3)C=C2c2ccccc2)cc1 | 0.92 µg/mL (inactive) (≈ 1.92 µM)
78 | Cn1cnc([N+](=O)[O-])c1Sc1ncnc2nc[nH]c12 | > 27 µg/mL
79 | O=C(CCNS(=O)(=O)c1cccc2nsnc12)N1CCN(c2ccccn2)CC1 | > 43 µg/mL
80 | CC(C)C(=O)NC(c1ccco1)c1ccc2cccnc2c1O (centres undefined) | 3.3 µg/mL (inactive) (≈ 10.6 µM)
81 | O=C(CSc1cccc2cccnc12)N1CCCC1 | > 27 µg/mL
82 | O=C(c1ccccn1)N(Cc1cccs1)C1(C(=O)NC2CCCCC2)CCCCC1 | 7.3 µg/mL (inactive) (≈ 17.2 µM)
83 | CC1CCCN(C(C(=O)Nc2ccc3c(c2)OCCO3)c2ccccc2)C1 (centres undefined) | 5.2 µg/mL (inactive) (≈ 14.2 µM)
84 | C/C=C/Cn1c(SCCCc2ccccc2)nc2c1c(=O)[nH]c(=O)n2C | 0.19 µg/mL (inactive) (≈ 0.513 µM)
85 | CCN1CCN(c2nc3ccccc3nc2C(C#N)C(=O)OC2CCCCC2)CC1 (centres undefined) | 24.3 µg/mL (≈ 59.6 µM)
86 | O=C1C2CC=CCC2C(=O)N1c1n[nH]c(-c2ccccc2)n1 (centres undefined) | > 29 µg/mL
87 | O=C(COC(=O)C12CC3CC(CC(C3)C1)C2)NCc1ccco1 | < 0.01 µg/mL (inactive)
88 | C=CCn1c(SCC(=O)c2ccc(O)c(O)c2)nnc1-c1ccccc1OC | 26 µg/mL (≈ 65.4 µM)
89 | CCCOc1ccc(-c2nc(OC)c3ccccc3n2)cc1 | < 0.01 µg/mL (inactive)

Source: PubChem BioAssay AID624321 (Sanford-Burnham Center for Chemical Genomics, 2012)
